Experimental data: ChEMBL document CHEMBL1130481, “Structure-activity relationships of carbocyclic influenza neuraminidase inhibitors” (Bioorg Med Chem Lett, 1997)

Legend:
[1] = target: Neuraminidase (Influenza A virus (A/Puerto Rico/8/1934(H1N1)), UniProt P03468); assay: Inhibition of neuraminidase of influenza A/PR/8/34(H1N1)
[2] = system: unidentified influenza virus; assay: Concentration required for 50% inhibition of influenza A/WS/33 by plaque reduction assay; format: functional, organism-based

Chain of Neuraminidase (Influenza A virus (A/Puerto Rico/8/1934(H1N1)), UniProt P03468) (P03468 whole entry): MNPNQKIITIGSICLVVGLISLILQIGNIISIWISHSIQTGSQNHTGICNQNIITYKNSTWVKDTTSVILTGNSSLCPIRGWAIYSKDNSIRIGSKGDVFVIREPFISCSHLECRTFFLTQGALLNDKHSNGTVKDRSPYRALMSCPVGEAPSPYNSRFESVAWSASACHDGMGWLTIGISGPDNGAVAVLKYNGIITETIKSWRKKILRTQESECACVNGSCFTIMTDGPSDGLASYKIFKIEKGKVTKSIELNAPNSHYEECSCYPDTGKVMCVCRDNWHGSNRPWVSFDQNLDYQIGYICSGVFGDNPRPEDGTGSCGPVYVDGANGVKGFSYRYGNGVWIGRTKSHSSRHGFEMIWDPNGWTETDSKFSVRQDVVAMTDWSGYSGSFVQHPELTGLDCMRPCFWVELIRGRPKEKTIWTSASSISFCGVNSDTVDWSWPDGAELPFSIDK

Row | SMILES | IC50 [1] [nM] | IC50 [2] [nM]
1 | CC(=O)N[C@@H]1[C@@H](N)CC(C(=O)O)=C[C@H]1OC1CCCC1 | 22 | –
2 | CC(=O)N[C@@H]1[C@@H](N)CC(C(=O)O)=C[C@H]1Oc1ccccc1 | 530 | –
3 | CCCO[C@@H]1C=C(C(=O)O)C[C@H](N)[C@H]1NS(C)(=O)=O | 25000 | –
4 | CC(=O)N[C@@H]1[C@@H](N)CC(C(=O)O)=C[C@H]1OC1CCCCC1 | 60 | –
5 | CCCO[C@@H]1C=C(C(=O)O)C[C@H](NC=N)[C@H]1NC(C)=O | 140 | –
6 | COCO[C@@H]1C=C(C(=O)O)C[C@H](N)[C@H]1NC(C)=O | 2000 | –
7 | C=CCO[C@@H]1C=C(C(=O)O)C[C@H](N)[C@H]1NC(C)=O | 2200 | –
8 | CCCO[C@@H]1C=C(C(=O)O)C[C@H](N)[C@H]1NC(=O)C(F)(F)F | 1400 | 22000
9 | CCCO[C@@H]1C=C(C(=O)O)C[C@H](N)[C@H]1NC(=O)CC | 1500 | –
10 | CCCO[C@@H]1C=C(C(=O)O)C[C@H](N=C(N)N)[C@H]1NC(C)=O | 1.8 | 44
11 | CCCO[C@@H]1C=C(C(=O)O)C[C@H](N)[C@H]1NC(C)=O | 130 | 44000
12 | CCCO[C@@H]1C=C(C(=O)O)C[C@H](N=C(N)NC)[C@H]1NC(C)=O | 4.6 | 1.6
13 | CC(=O)N[C@@H]1[C@@H](N)CC(C(=O)O)=C[C@H]1OCCC(F)(F)F | 225 | –
